# Tests used:
# [1] = tested on: BxPC-3 cells; experiment: Dual acridine orange/ethidium bromide (AO/EB) fluorescent staining, apoptosis; type: cell-based, human; details: for increase in the apoptotic cell fraction: BxPC-3, both tested concentrations (IC50, 2xIC50), 24 and 48 h incubation
# Protocol: (§1) Data are presented as mean percentage of apoptotic cells (early and late apoptotic) ± SD values. The differences between the experimental samples and vehicle control were evaluated by the ANOVA test followed by Tukey’s test (p < 0.05). Experiments were performed in triplicate. For flow cytometry analysis with Annexin V-FITC staining, the approximate number of analyzed cells was (N = 1 × 10^4), contrasting with the dual acridine orange/ethidium bromide (AO/EB) fluorescent staining (N = 200). Acridine orange/ethidium bromide (AO/EB) staining is used to detect nuclear alterations and the development of apoptotic bodies, which are both indicative of apoptosis. Acridine orange penetrates into living cells, emitting green fluorescence after intercalation into DNA. The second dye, ethidium bromide, emits red fluorescence in cells with an altered cell membrane. The cells are divided into three categories as follows: living cells (green nucleus with red orange cytoplasm); apoptotic (green irregularly nuclei with chromatin condensation or fragmentation); and necrotic cells (uniformly orange-stained cell nuclei). Programmed cell death is measured by counting the number of cells that undergo apoptosis under a fluorescent microscope. BxPC-3 and PC-3 cells were seeded at an appropriate density on 12-well plates (Table 9). […] Following the incubation period, cells were incubated with fluorochromes (AO/EB: 100 µM; 1:1, v/v) for 5 min at 37 °C in the dark. Viable, apoptotic, or necrotic cells were distinguished using this method based on differential uptake of fluorescent DNA-binding dyes (AO/EB) with the structural aspect of chromatin condensation in the stained nucleus. Cells were analyzed using a fluorescence microscope (Olympus BX60 F5 Olympus Optical Co., Ltd., Nagano, Japan) at 360 nm. The results were obtained from three independent experiments.
# [2] = tested on: PC-3 cells; experiment: as above; type: cell-based, human; details: PC-3, 48 h incubation, control 1.5 ± 0.7%; for mean % of apoptotic cells: AO/EB, ± SD; for % of apoptotic cells, both tested concentrations: IC50 and 2xIC50, AO/EB
# Protocol: as §1
# [3] = tested on: HCT-116 cells; experiment: MTT assay, cell viability; type: cell-based; details: Homo sapiens, HCT-116, 72 h incubation, ± SD
# Protocol: (§2) A statistical program (Graphpad Prism 7) was used to analyze obtained data (MTT test). The dose–response analysis was performed to estimate the inhibitory concentration (IC50) of the tested compounds. The IC50 value is defined as a concentration of the tested compound that leads to a reduction in cell pool viability by 50% compared to the negative control (accepted as 100%). % cell viability=Absorbance value of treated cells−Absorbance value of blank/Absorbance value of untreated cells−Absorbance value of blank×100%
# To estimate cell viability following 72 h incubation with the tested MM-compounds (MM134, MM136, MM137, and MM139), the MTT test was used according to the PN-EN ISO 10993-5. It is a quantitative method based on the tetrazolium yellow dye MTT [3(4,5-dimethyl-2-thiazolyl)-2,5-diphenyl-2H-tetrazolium bromide], which is converted by living cells to a purple product, formazan, the concentration of which was measured colorimetrically. The MTT assay was performed according to the procedure described by Mosmann with modifications. At a density of approximately 8 × 10^3 cells per 100 µL/well, 96-well plates were seeded. Following the given incubation period in controlled conditions (37 °C; 5% CO2), cells were exposed to different concentrations of tested compounds in DMSO (range 0.05–3 µM) in a volume of 100 µL medium per well. Final solvent concentration of DMSO was < 0.5% v/v. The experimental design included vehicle controls and blanks (wells without cells).
# (§3) After 72 h of incubation of cells with tested MM-compounds, 20 µL of MTT tetrazolium salt (5 mg/mL in PBS) was added to each well, and plates were incubated once again in a humidified atmosphere for 3 h (37 °C; 5% CO2). Following the incubation time, the solutions were removed and 100 µL of DMSO was added to dissolve the formazan complexes. Subsequently, a spectrophotometer (microplate reader Power Wave XS BioTek Instruments, Inc., Winooski, VT, USA) reading was performed at 570 nm. The experiments were performed in duplicates.
# [4] = tested on: cancer cell lines (BxPC-3, HCT-116, PC-3); experiment: MTT assay, cancer cell lines together; type: cell-based; details: Homo sapiens; range over BxPC-3, HCT-116, PC-3; 72 h MTT; read-out: IC50 values in cancer cells
# Protocol: as §2
# To estimate cell viability following 72 h incubation with the tested MM-compounds (MM134, MM136, MM137, and MM139), the MTT test was used according to the PN-EN ISO 10993-5. It is a quantitative method based on the tetrazolium yellow dye MTT [3(4,5-dimethyl-2-thiazolyl)-2,5-diphenyl-2H-tetrazolium bromide], which is converted by living cells to a purple product, formazan, the concentration of which was measured colorimetrically. […]
# as §3, with “Following the incubation time, the solutions were removed and 100 µL of DMSO was added to dissolve the formazan complexes.” left out, “The experiments were performed in duplicates.” left out
Compound,increase in the apoptotic cell fraction [1],mean % of apoptotic cells ([2]; 2xIC50 concentration),mean % of apoptotic cells ([2]; IC50 concentration),IC50 [3],"increase in apoptotic fraction ([1]; BxPC-3, IC50 concentration, 24 h incubation)","% of apoptotic cells, both tested concentrations [2]",IC50 [4]
Cc1nn(-c2ccc(S(=O)(=O)NCCN3CCOCC3)cc2)c2nn3nnnc3nc12 [MM134],statistically significant increase,11 ± 1.41%,8.5 ± 0.7%,–,–,–,–
Cc1nn(-c2ccc(S(=O)(=O)N3CCN(C)CC3)cc2)c2nn3nnnc3nc12 [MM137],–,24 ± 1.41%,15 ± 2.82%,0.14 ± 0.02 µM,did not induce a significant increase,statistically significant increase,0.11 to 0.16 µM
Cc1nn(-c2ccc(S(=O)(=O)N3CCCCC3)cc2)c2nn3nnnc3nc12 [MM139],statistically significant increase,12.5 ± 0.7%,13.5 ± 3.53%,0.35 ± 0.05 µM,–,statistically significant increase,–
